{"source": "patent US7374890B2", "about": "“Methods for identifying compounds that modulate ΔTRα2 activity” (University of Massachusetts, priority 2000, dated 2008)", "key": {"[1]": {"tested_on": "deiodination", "conditions": "cited from earlier work"}, "[2]": {"tested_on": "Ca-dependent Mg-ATPase release of p29 vesicles from F-actin", "assay": "release of F-actin-bound p29 vesicles by Ca-dependent Mg-ATPase", "assay_type": "biochemical, rat", "conditions": "5 mM EGTA", "description": "To determine whether this is a direct interaction between the vesicle and F-actin or is mediated by other actin-bound proteins, e.g., myosin V, the release of p29 vesicle bound to F-actin by activating a Ca-dependent Mg-ATPase was investigated. Synaptic vesicle-bound myosin V is released from F-actin by activating the Ca-dependent MgATPase found in the actin binding head of myosin V (Prekeris et al, 1997, J. Cell Biol. 137: 1589-1601; Nascimento et al., 1996, J. Biol. Chem. 271:17561-17569). In this experiment, confluent monolayers of astrocytes were grown in serum-free media for 16 hours, then D2 activity was induced with bt2cAMP and hydrocortisone, and the p29 vesicle was affinity radiolabeled with BrAc[^125I]T4. Cell lysates containing approximately 50,000 cpm of BrAc[^125I]T4-labeled p29 were pretreated with 10 nM […] at 37° C., followed by an additional 20 minute incubation with 0.1 mM Ca^2+, 1 mM Mg^2+, 0.1 mM ATP, or 5 mM EGTA. Triton-insoluble (F-actin bound) pellets were prepared as described herein. […] Triton-insoluble (F-actin-bound) pellets were separated from the Triton-soluble (vesicle) fraction by microfuge centrifugation (14,000×g for five minutes) and the distribution of p29 was determined by y-counting, and by SDS-PAGE analysis."}, "[3]": {"biological_target": "T1, ΔTRα2 (T4 Inactivating Protein; TIP) (Rattus norvegicus, UniProt P63059)", "T1 construct": "ΔTRα2 is encoded by exons 8-10 resulting in an approximately 25 kd protein", "T1 sequence (P63059 whole entry, stated change not applied)": "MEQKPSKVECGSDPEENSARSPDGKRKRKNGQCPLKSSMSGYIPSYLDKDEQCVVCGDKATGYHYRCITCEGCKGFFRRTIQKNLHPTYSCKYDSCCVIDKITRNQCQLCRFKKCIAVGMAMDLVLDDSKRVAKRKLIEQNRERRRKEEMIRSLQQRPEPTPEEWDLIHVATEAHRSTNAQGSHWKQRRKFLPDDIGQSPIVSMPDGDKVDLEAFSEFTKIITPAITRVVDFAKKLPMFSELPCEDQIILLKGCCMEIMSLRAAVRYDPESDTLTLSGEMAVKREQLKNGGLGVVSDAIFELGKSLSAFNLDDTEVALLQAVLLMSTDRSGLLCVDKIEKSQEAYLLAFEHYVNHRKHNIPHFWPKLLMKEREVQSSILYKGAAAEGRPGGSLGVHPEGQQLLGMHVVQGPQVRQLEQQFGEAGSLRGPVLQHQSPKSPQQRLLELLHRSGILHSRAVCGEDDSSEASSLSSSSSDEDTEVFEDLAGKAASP", "assay": "rT3 binding displacement in nuclei-free extracts of cultured rat astrocytes", "procedure": "The properties of thyroid hormone binding to non-nuclear components of the cell were examined using ΔTRα2 (T4 Inactivating Protein; TIP)-containing, nuclei-free extracts of cultured rat astrocytes. […] Both rT3 and T4 specifically displace rT3 with Kd's of approximately 0.3-0.5 nM."}, "[4]": {"biological_target": "binding of p29^GFP vesicles to F-actin", "assay": "modified in vitro actin binding assay with p29^GFP-labeled vesicles", "assay_type": "biochemical, rat", "conditions": "0-100 nM, 20 minutes at 37° C.; read-out: EC50, increase in quantity of p29^GFP bound to F-actin", "procedure": "To define the specific region(s) of the myosin V tail that interact with the p29 vesicle, a series of deletion mutations were created based on the dominant negative effect of exogenous myosin V tail on p29 vesicle binding. Competition analysis of the myosin V deletion mutations on T4-dependent binding of p29 vesicles to F-actin was performed using a modified in vitro assay in which a GFP-tagged p29 fusion protein (p29^GFP) replaced the radioaffinity labeled native p29 (Farwell et al., 1990, J. Biol. Chem. 265:18546-18553; Farwell et al., 1993, J. Biol. Chem. 268:5055-5062). This allowed direct evaluation of the binding of fluorescent vesicles to F-actin without affinity radiolabeling of the p29 and subsequent SDS-PAGE analysis.\nSpecific fluorescence at 510 nm (excitation, 488 nm) was then determined in the resuspended Triton-insoluble pellets.\nTo determine if the myosin V tail could be captured by the p29^GFP vesicle, an exogenous myosin V^tail was introduced into astrocytes constitutively expressing p29^GFP by infection with Ad5-ΔMyo V^tail virus particles and examined the effects of T4 on the binding of the myosin V^tail to immunopurified p29^GFP vesicles. Astrocytes expressing p29^GFP were grown in serum-free media and treated for 16 hours with 1 mM bt2cAMP and 100 nM hydrocortisone. A separate pool of astrocytes was treated in serum-free media supplemented with 10 μM retinoic acid. Cells were collected by scraping, and lysed by two freeze-thaw cycles. […] Triton-soluble (vesicle) and Triton-insoluble (F-actin) fractions were separated by microflige centrifugation. Triton pellets were resuspended in 300 μl of PBS and fluorescence at 510 nm (excitation 488 nm) determined and relative fluorescence was reported as arbitrary units. Cells were treated with 10 nM T4 for twenty minutes and a Triton-soluble supernatant was prepared. Vesicles containing the p29^GFP were immunoprecipitated by anti-GFP IgG (2 μg/ml) and protein in the immunoprecipitates were resolved by SDS-PAGE. Immunoblot analysis of vesicle-associated myosin V was performed using the anti-myosin V antibody directed against the C-terminus.\nThe quantity of each mutant protein synthesized was determined by [^35 S]-methionine incorporation. Astrocytes expressing p29^GFP were grown in serum-free media and treated for 16 hours with […] bt2cAMP and 100 nM hydrocortisone. p29^GFP V-lysate and F-lysate were prepared as described herein. 100 μg aliquots of p29^GFP V-lysate and F-lysate were pre-incubated, in triplicate, for 20 minutes at 37° C. in the presence of individual Δ myosin V mutant proteins (˜2-3 pmol polypeptide/50 μl mixture) were added to the actin-binding assay and pre-incubated for 20 minutes at 37° C. T4 (10 nM) was then added, the mixtures incubated for 20 minutes at 37° C., and F-actin bound, fluorescent p29^GFP vesicles were then isolated in the Triton-insoluble pellet.\nV lysates prepared from astrocytes over-expressing p29^GFP were pre-incubated for 30 minutes at room temperature with antisera raised against ΔTRα2, ΔTRα1, the C-terminus of MyoV (encoded by MyoV^tail, FIG. 5), the coiled-coil region of MyoV (encoded by MyoV^coil-coil, FIG. 5) and GFP (green fluorescent protein). T4 (10 nM) and actin fiber-containing F-lysate was then added, the mixtures incubated at 37° C. for 20 minutes, and the Triton-insoluble fraction isolated by centrifugation."}, "[5]": {"tested_on": "astrocytes", "assay": "subcellular distribution of immunoreactive TRα2-derived proteins in cultured astrocytes", "assay_type": "cell-based, rat", "conditions": "serum-free medium, treated 20 minutes, 0.1% bovine serum albumin carrier", "description": "The subcellular distribution of immunoreactive thyroid hormone receptor-derived proteins in primary brain cell cultures and in cultured astrocytes was examined. Primary brain cell cultures were fixed with 0.4% paraformaldehyde, permeabilized with Triton X-100®, and stained for TRα-derived proteins using specific antisera directed against the unique C-termini of TRα1 and TRα2 proteins, and visualized by staining with a secondary tagged antibody. Consistent with previous observations (Kolodny et al., 1985, Endocrinol. 117: 1848-1857), immunoreactive TRα1 proteins were found in the nuclei of astrocytes and neuronal cells. However, TRα2-derived proteins were not localized to the nucleus in either astrocytes or neurons, but appeared as donut shaped structures located throughout the astrocyte or as discreet punctate signals along neuronal fibers. This latter pattern is diagnostic for synapses in neuronal cultures (Wong et al., 1999, Neurosci. 89:221-233), and is consistent with the presence of ΔTRα2-derived protein in nerve terminals.\nThe subcellular distribution of immunoreactive TRα2-derived proteins in cultured astrocytes was influenced by the presence of either T4 or rT3. In these experiments astrocytes were grown in serum-free medium, treated for 20 minutes with either […] or rT3, and fixed, permeabilized, and stained as described above. […]"}, "[6]": {"tested_on": "cerebellar granule neurons", "assay": "release of FM1-43-loaded synaptic vesicles from cerebellar granule neurons under continuous stimulus", "assay_type": "cell-based, rat", "conditions": "10 nM hormone; continuous stimulation by 50 mM KCl; vs no hormone controls; first order kinetics assumed", "procedure": "Granule neurons were grown for 7 days and rendered hormone free by growth in serum-free medium as detailed above. Coverslips were then placed in a perfusion chamber, mounted on the stage of a laser scanning confocal microscope and perfused at 1 ml/min at 25° C. with perfusion buffer (119 mM NaCl, 2.5 mM KCl, 2 mM CaCl2, 2 mM MgCl2, 25 mM HEPES (pH 7.4), 30 mM glucose, and […] AP-5). The effects of different hormones on synaptic vesicle trafficking were then determined. […] Depolarizing KCl was then removed from the perfusion buffer and the cells were exposed to FM1-43 for an additional 30 seconds to insure complete loading of recycling synaptic vesicles. Loaded cells were then washed free of dye and the cells were perfused for ten minutes at rest.\nImages of a single field of neuronal fibers were then taken immediately before adding a second depolarizing solution (perfusion buffer containing 50 mM KCl) and at one and two minutes after beginning the continuous stimulation by 50 mM KCl. Thirty to forty-five individual FM1-43 labeled nerve terminals were identified in the baseline images (taken prior to depolarization) and the change in fluorescence (DF) for each nerve terminal determined at the one and two minute time points. FIGS. 11A and 11B show the results of analysis of the hormone specificity of synaptic vesicle trafficking (FIG. 11A) and the influence of individual myo5a mutants (FIG. 11B) on synaptic vesicle transport in granule neurons.\nTo evaluate the role of myo5a in synaptic vesicle transport, three different myo5a constructs were introduced into the neurons by replication-deficient adenoviral vectors (Δmyo5a^tail(MyoV^tail), Δmyo5a^c-term(MyoV^1830)and ΔMyo5a^CC(MyoV^cc) see FIG. 5) as described above. […] Neurons were infected with purified Ad5-constructs (MOI=10) 48 hours prior to the synaptic vesicle trafficking study, and allowed to recover in hormone (T4) supplemented medium. […] This modest influence of the VBD mutant on synaptic vesicle retention is likely to be due to the loss of the kinesin-binding domain that limits its delivery to nerve terminals."}, "[7]": {"biological_target": "ΔTRα1 (Rattus norvegicus, UniProt P63059)", "assay": "[125I]rT3 displacement from cell-free translated ΔTRα1", "assay_type": "binding", "conditions": "cell-free translated polypeptide", "description": "(§1) ΔTRα1 and ΔTRα2 polypeptides were synthesized by cell-free translation of appropriate segments of the rat ΔTRα1 and ΔTRα2 cDNA using the coupled transcription-translation kit from Promega® (TNT) according to the manufacturer's instructions."}, "[8]": {"biological_target": "T2, ΔTRα2 (Rattus norvegicus, UniProt P63059)", "T2 sequence (P63059 256-492)": "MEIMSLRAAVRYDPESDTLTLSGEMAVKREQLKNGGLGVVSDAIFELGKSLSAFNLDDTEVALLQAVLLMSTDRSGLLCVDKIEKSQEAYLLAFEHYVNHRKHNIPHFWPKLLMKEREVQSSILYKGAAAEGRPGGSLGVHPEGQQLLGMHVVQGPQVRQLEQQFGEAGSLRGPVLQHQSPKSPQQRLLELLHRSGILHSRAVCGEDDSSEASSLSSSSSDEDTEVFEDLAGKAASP", "assay": "[125I]rT3 displacement from cell-free translated ΔTRα2", "assay_type": "binding", "conditions": "cell-free translated polypeptide", "description": "as §1"}, "[9]": {"biological_target": "transthretin (Homo sapiens, UniProt P02766)", "conditions": "cited from earlier work"}, "[10]": {"tested_on": "T4 deiodinases", "conditions": "cited from earlier work"}, "[11]": {"tested_on": "D2 activity", "conditions": "in astrocytes; cited from earlier work"}}}
{"compound": "O=C(CCc1ccc(O)cc1)c1c(O)cc(O)cc1O", "note": "[phloretin]", "values": [{"measurement": "inhibition of deiodination", "setting": "[1]", "value": "potent inhibitor"}]}
{"compound": "O=C(O)CN(CCOCCOCCN(CC(=O)O)CC(=O)O)CC(=O)O", "note": "[EGTA]", "values": [{"measurement": "block of Ca2+-stimulated, Mg2ATPase-dependent release of p29 from F-actin", "setting": "[2]", "value": "more than 50%"}]}
{"compound": "N[C@@H](Cc1ccc(Oc2cc(I)c(O)c(I)c2)c(I)c1)C(=O)O", "note": "[rT3, 3, 3′, 5′-triiodothyronine]", "values": [{"measurement": "Kd", "setting": "[3]", "value": "300 to 500", "unit": "pM"}, {"measurement": "EC50", "setting": "[4]", "value": "~500", "unit": "pM"}, {"measurement": "subcellular distribution of TRα2-derived proteins", "setting": "[5]", "value": "coalescence of the TRα2-derived proteins around the perinuclear space"}, {"measurement": "decrease of the rate of FM1-43 release", "setting": "[6]", "value": 75, "unit": "%"}, {"measurement": "Kd", "setting": "[7]", "value": "300 to 1000", "unit": "pM"}, {"measurement": "Kd", "setting": "[8]", "value": "300 to 1000", "unit": "pM"}]}
{"compound": "Cc1c(-c2cc(Br)c(O)c(Br)c2)oc2ccc(O)cc2c1=O", "note": "[EMD21388]", "values": [{"measurement": "block of the binding of T4 to transthretin", "setting": "[9]", "value": "competitively block"}, {"measurement": "inhibition of T4 deiodinases", "setting": "[10]", "value": "can inhibit"}, {"measurement": "quantity of D2 activity", "setting": "[11]", "value": "decreases the quantity of D2 activity"}]}
